Measured values published in PubChem BioAssay AID2060497 (Molecular Pharmacology Branch, DTP, NCI, 2025).

Test system: 317291-083-R-J1-PDC complex spheroids, viability
Experiment: Anticancer human tumor 317291-083-R-J1-PDC patient-derived soft tissue sarcoma cell line growth inhibition [GQUAD]
Settings: for IC50: curve of first compound; for viability, T/C: stronger effect = lower value
Outline: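 Tumor cells were grown as complex spheroids with HUVEC endothelial cells and mesenchymal stem cells as stroma. G-quadruplex stabilizers were combined with targeted agents over half-log dilutions from near the clinical Cmax, or from 10 microM.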

[1] = second compound 0.0316 µM, first compound 0.0316 µM
[2] = second compound 0.0316 µM, first compound 0.316 µM
[3] = second compound 0.1 µM, first compound 0.0316 µM
[4] = second compound 0.1 µM, first compound 0.316 µM
[5] = second compound 0.316 µM, first compound 0.0316 µM
[6] = second compound 0.316 µM, first compound 0.316 µM
[7] = second compound 1 µM, first compound 0.0316 µM
[8] = second compound 1 µM, first compound 0.316 µM
[9] = second compound 3.16 µM, first compound 0.0316 µM
[10] = second compound 3.16 µM, first compound 0.316 µM
[11] = second compound 10 µM, first compound 0.0316 µM
[12] = second compound 10 µM, first compound 0.316 µM
[13] = second compound 0.0316 µM, first compound 0.000999 µM
[14] = second compound 0.0316 µM, first compound 0.00316 µM
[15] = second compound 0.0316 µM, first compound 0.00999 µM
[16] = second compound 0.0316 µM, first compound 0.0999 µM
[17] = second compound 0.1 µM, first compound 0.000999 µM
[18] = second compound 0.1 µM, first compound 0.00316 µM
[19] = second compound 0.1 µM, first compound 0.00999 µM
[20] = second compound 0.1 µM, first compound 0.0999 µM
[21] = second compound 0.316 µM, first compound 0.000999 µM
[22] = second compound 0.316 µM, first compound 0.00316 µM
[23] = second compound 0.316 µM, first compound 0.00999 µM
[24] = second compound 0.316 µM, first compound 0.0999 µM
[25] = second compound 1 µM, first compound 0.000999 µM
[26] = second compound 1 µM, first compound 0.00316 µM
[27] = second compound 1 µM, first compound 0.00999 µM
[28] = second compound 1 µM, first compound 0.0999 µM
[29] = second compound 3.16 µM, first compound 0.000999 µM
[30] = second compound 3.16 µM, first compound 0.00316 µM
[31] = second compound 3.16 µM, first compound 0.00999 µM
[32] = second compound 3.16 µM, first compound 0.0999 µM
[33] = second compound 10 µM, first compound 0.000999 µM
[34] = second compound 10 µM, first compound 0.00316 µM
[35] = second compound 10 µM, first compound 0.00999 µM
[36] = second compound 10 µM, first compound 0.0999 µM
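Further: spheroids exposed to compounds for one week before readout.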
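Wherever viability, T/C is given: percent viability relative to DMSO vehicle wells taken as 100%.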

CC(=O)O[C@H]1C(=O)[C@@]2(C)[C@H]([C@H](OC(=O)c3ccccc3)[C@]3(O)C[C@H](OC(=O)[C@H](O)[C@@H](NC(=O)c4ccccc4)c4ccccc4)C(C)=C1C3(C)C)[C@]1(OC(C)=O)CO[C@@H]1C[C@@H]2O + Cc1[nH]c2ccc(F)cc2c1-c1nc2c3cccnc3c3ncccc3c2[nH]1
IC50 (second compound 0.0316 µM): < 0.0316 µM
IC50 (second compound 0.1 µM): < 0.0316 µM
IC50 (second compound 0.316 µM): < 0.0316 µM
IC50 (second compound 1 µM): < 0.0316 µM
IC50 (second compound 3.16 µM): < 0.0316 µM
IC50 (second compound 10 µM): < 0.0316 µM
viability, T/C [1]: 45.6%
viability, T/C (second compound 0.0316 µM, first compound 0.1 µM): 19.7%
viability, T/C [2]: 15.5%
viability, T/C (second compound 0.0316 µM, first compound 1 µM): 16.5%
viability, T/C (second compound 0.0316 µM, first compound 3.16 µM): 13.9%
viability, T/C (second compound 0.0316 µM, first compound 10 µM): 12.1%
viability, T/C [3]: 46.6%
viability, T/C (second compound 0.1 µM, first compound 0.1 µM): 21.5%
viability, T/C [4]: 12.2%
viability, T/C (second compound 0.1 µM, first compound 1 µM): 17.6%
viability, T/C (second compound 0.1 µM, first compound 3.16 µM): 15.1%
viability, T/C (second compound 0.1 µM, first compound 10 µM): 16.6%
viability, T/C [5]: 40%
viability, T/C (second compound 0.316 µM, first compound 0.1 µM): 18.9%
viability, T/C [6]: 16.8%
viability, T/C (second compound 0.316 µM, first compound 1 µM): 15.3%
viability, T/C (second compound 0.316 µM, first compound 3.16 µM): 13.7%
viability, T/C (second compound 0.316 µM, first compound 10 µM): 16.1%
viability, T/C [7]: 32.9%
viability, T/C (second compound 1 µM, first compound 0.1 µM): 18%
viability, T/C [8]: 17.2%
viability, T/C (second compound 1 µM, first compound 1 µM): 17.7%
viability, T/C (second compound 1 µM, first compound 3.16 µM): 16.1%
viability, T/C (second compound 1 µM, first compound 10 µM): 12.7%
viability, T/C [9]: 20.1%
viability, T/C (second compound 3.16 µM, first compound 0.1 µM): 11%
viability, T/C [10]: 12.4%
viability, T/C (second compound 3.16 µM, first compound 1 µM): 11.6%
viability, T/C (second compound 3.16 µM, first compound 3.16 µM): 10.7%
viability, T/C (second compound 3.16 µM, first compound 10 µM): 8.8%
viability, T/C [11]: 27%
viability, T/C (second compound 10 µM, first compound 0.1 µM): 17.1%
viability, T/C [12]: 15.2%
viability, T/C (second compound 10 µM, first compound 1 µM): 14.7%
viability, T/C (second compound 10 µM, first compound 3.16 µM): 12.7%
viability, T/C (second compound 10 µM, first compound 10 µM): 12.5%

CC[C@@]1(O)C(=O)OCc2c1cc1n(c2=O)Cc2cc3c(CN(C)C)c(O)ccc3nc2-1 + Cc1[nH]c2ccc(F)cc2c1-c1nc2c3cccnc3c3ncccc3c2[nH]1
IC50 (second compound 0.0316 µM): 0.0539 µM
IC50 (second compound 0.1 µM): 0.0615 µM
IC50 (second compound 0.316 µM): 0.0559 µM
IC50 (second compound 1 µM): 0.0607 µM
IC50 (second compound 3.16 µM): 0.0465 µM
IC50 (second compound 10 µM): 0.0245 µM
viability, T/C [13]: 97.6%
viability, T/C [14]: 92%
viability, T/C [15]: 83%
viability, T/C [1]: 72.3%
viability, T/C [16]: 25%
viability, T/C [2]: 14.7%
viability, T/C [17]: 106%
viability, T/C [18]: 91.9%
viability, T/C [19]: 91.2%
viability, T/C [3]: 87.6%
viability, T/C [20]: 22.5%
viability, T/C [4]: 17.7%
viability, T/C [21]: 96.9%
viability, T/C [22]: 97.9%
viability, T/C [23]: 90.9%
viability, T/C [5]: 75.7%
viability, T/C [24]: 24.1%
viability, T/C [6]: 9.9%
viability, T/C [25]: 98.8%
viability, T/C [26]: 96.6%
viability, T/C [27]: 108%
viability, T/C [7]: 74.4%
viability, T/C [28]: 30.9%
viability, T/C [8]: 9.35%
viability, T/C [29]: 97.6%
viability, T/C [30]: 100%
viability, T/C [31]: 80.4%
viability, T/C [9]: 64.6%
viability, T/C [32]: 26.2%
viability, T/C [10]: 9.6%
viability, T/C [33]: 63.8%
viability, T/C [34]: 69.1%
viability, T/C [35]: 84%
viability, T/C [11]: 43.7%
viability, T/C [36]: 18.7%
viability, T/C [12]: 8.82%

CCc1c2c(nc3ccc(O)cc13)-c1cc3c(c(=O)n1C2)COC(=O)[C@]3(O)CC + Cc1[nH]c2ccc(F)cc2c1-c1nc2c3cccnc3c3ncccc3c2[nH]1
IC50 (second compound 0.0316 µM): 0.00169 µM
IC50 (second compound 0.1 µM): 0.00159 µM
IC50 (second compound 0.316 µM): 0.00151 µM
IC50 (second compound 1 µM): 0.00176 µM
IC50 (second compound 3.16 µM): 0.00146 µM
IC50 (second compound 10 µM): < 0.000999 µM
viability, T/C [13]: 71.4%
viability, T/C [14]: 23.9%
viability, T/C [15]: 12.8%
viability, T/C [1]: 8.37%
viability, T/C [16]: 6.91%
viability, T/C [2]: 4.31%
viability, T/C [17]: 70.2%
viability, T/C [18]: 19.9%
viability, T/C [19]: 8.9%
viability, T/C [3]: 10%
viability, T/C [20]: 7.96%
viability, T/C [4]: 3.98%
viability, T/C [21]: 66.7%
viability, T/C [22]: 18.4%
viability, T/C [23]: 16.5%
viability, T/C [5]: 8.55%
viability, T/C [24]: 6.58%
viability, T/C [6]: 4.87%
viability, T/C [25]: 75.8%
viability, T/C [26]: 22.1%
viability, T/C [27]: 14.6%
viability, T/C [7]: 9.41%
viability, T/C [28]: 6.65%
viability, T/C [8]: 5.39%
viability, T/C [29]: 65.4%
viability, T/C [30]: 18.1%
viability, T/C [31]: 8.2%
viability, T/C [9]: 8.72%
viability, T/C [32]: 6.44%
viability, T/C [10]: 4.32%
viability, T/C [33]: 37.7%
viability, T/C [34]: 14.2%
viability, T/C [35]: 9.41%
viability, T/C [11]: 9.06%
viability, T/C [36]: 5.65%
viability, T/C [12]: 7.19%
